# Test results from ChEMBL document CHEMBL1131698, “Platelet glycoprotein IIb/IIIa receptor antagonists derived from isoxazolidines” (Bioorg Med Chem Lett, 1999).
# pIC50: −log10 of the molar value.
# Species on record: Homo sapiens
# Assay: Compound was tested for its in vitro activity in the inhibition of platelet aggregation using human platelet rich plasma
# Type: functional
row,Compound,pIC50
1,Cc1cccc(S(=O)(=O)N[C@@H](CNC(=O)C[C@@H]2C[C@H](c3ccc(C(=N)N)cc3)N(c3ccccc3)O2)C(=O)O)c1,6.28
2,Cc1cccc(S(=O)(=O)N[C@@H](CNC(=O)C[C@@H]2C[C@H](c3ccc(C(=N)N)cc3)N(C)O2)C(=O)O)c1,7.55
3,Cc1cccc(S(=O)(=O)N[C@@H](CNC(=O)C[C@@H]2C[C@H](c3ccc(C(=N)N)cc3)N(Cc3ccccc3)O2)C(=O)O)c1,6.72
4,CCCCOC(=O)N[C@@H](CNC(=O)C[C@@H]1C[C@H](c2ccc(C(=N)N)cc2)N(C)O1)C(=O)O,6.79
5,Cc1cccc(S(=O)(=O)N[C@@H](CNC(=O)C[C@H]2C[C@H](c3ccc(C(=N)N)cc3)N(C)O2)C(=O)O)c1,5.82
6,Cc1ccccc1S(=O)(=O)N[C@@H](CNC(=O)C[C@@H]1C[C@H](c2ccc(C(=N)N)cc2)N(C)O1)C(=O)O,7.24
7,Cc1noc(C)c1S(=O)(=O)N[C@@H](CNC(=O)C[C@@H]1C[C@H](c2ccc(C(=N)N)cc2)N(C)O1)C(=O)O,7.08
8,Cc1cccc(S(=O)(=O)N[C@@H](CNC(=O)C[C@@H]2C[C@H](c3ccc(C(=N)N)cc3)N(C(C)C)O2)C(=O)O)c1,6.85
